Source: USRE49850E1, “N-(pyridin-2-yl)-4-(thiazol-5-yl)pyrimidin-2-amine derivatives as therapeutic compounds” (AUCENTRA THERAPEUTICS PTY LTD, priority 2015, dated 2024)

Experiments:
CDK1B = CDK1B (Homo sapiens, UniProt P06493); experiment: Kinase assay CDK1B (radiometric profiling service); format: biochemical; details: apparent Ki calculated from Km (ATP) and IC50; read-out: CDK inhibition Ki CDK1B
Method in brief: (§1)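 Radiometric inhibition data for CDKs came from Eurofins or Reaction Biology profiling services; CDK4/D1 was also run in-house by ADP-Glo in […] pH 7.5, 20 mM MgCl2, 0.4 mM DTT, 0.1 mg/ml BSA with RB-CTF substrate, 40 min at 37 °C after ATP start. Ten-point 1:3 dilutions (10 μM–0.5 nM); four-parameter IC50, Ki from IC50 and ATP Km.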

MV4-11 = experiment: Cell viability assay (resazurin, leukemia cell line) MV4-11; format: cell-based, human; details: Homo sapiens, MV4-11, 72 h; read-out: Anti-proliferative activity GI50 MV4-11
Description: (§2) Compounds from Example 1 were subjected to a standard MTT (3-(4,5-dimethylthiazol-2-yl)-2,5-diphenyltetrazolium bromide) and resazurin assays on solid tumour cell lines and leukemia cell lines, respectively, as previously reported (Wang S et al., J Med Chem 47:1662-1675, 2004 and Diab S. et al. CheMedChem 9:962-972, 2014).

CDK7H = CDK7H (Homo sapiens, UniProt P50613); experiment: Kinase assay CDK7H (radiometric profiling service); format: biochemical; details: apparent Ki calculated from Km (ATP) and IC50; read-out: CDK inhibition Ki CDK7H
Chain of CDK7H (P50613 whole entry): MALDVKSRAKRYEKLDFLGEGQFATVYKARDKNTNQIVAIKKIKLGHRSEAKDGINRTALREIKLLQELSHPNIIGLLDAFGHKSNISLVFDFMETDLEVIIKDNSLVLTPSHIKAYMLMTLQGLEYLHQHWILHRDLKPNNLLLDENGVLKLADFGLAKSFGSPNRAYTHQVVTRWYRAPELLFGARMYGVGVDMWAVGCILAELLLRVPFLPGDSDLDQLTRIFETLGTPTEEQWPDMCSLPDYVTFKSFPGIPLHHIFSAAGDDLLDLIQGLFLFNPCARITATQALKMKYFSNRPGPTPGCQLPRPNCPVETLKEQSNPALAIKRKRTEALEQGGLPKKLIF
Chain of CDK7H (P51946 whole entry partner): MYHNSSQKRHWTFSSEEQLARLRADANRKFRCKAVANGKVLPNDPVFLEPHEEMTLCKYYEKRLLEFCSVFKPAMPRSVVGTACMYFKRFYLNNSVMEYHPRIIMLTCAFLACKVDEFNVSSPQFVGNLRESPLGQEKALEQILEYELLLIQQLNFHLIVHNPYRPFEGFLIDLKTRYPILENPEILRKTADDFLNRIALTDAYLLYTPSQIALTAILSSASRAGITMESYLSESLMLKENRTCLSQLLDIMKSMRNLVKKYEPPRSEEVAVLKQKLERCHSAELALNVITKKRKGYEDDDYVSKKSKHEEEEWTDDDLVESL
Chain of CDK7H (P51948 whole entry partner): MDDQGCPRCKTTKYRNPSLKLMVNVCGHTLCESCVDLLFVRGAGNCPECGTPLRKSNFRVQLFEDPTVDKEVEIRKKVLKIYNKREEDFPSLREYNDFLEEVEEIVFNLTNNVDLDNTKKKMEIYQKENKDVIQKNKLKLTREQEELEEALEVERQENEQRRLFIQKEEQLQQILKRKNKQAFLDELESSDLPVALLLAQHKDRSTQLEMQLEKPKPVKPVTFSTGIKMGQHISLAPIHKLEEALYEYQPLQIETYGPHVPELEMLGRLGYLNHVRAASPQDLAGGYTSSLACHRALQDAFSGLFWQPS
Method in brief: as §1

CDK 2A = CDK 2A (Homo sapiens, UniProt P24941); experiment: Kinase assay CDK2A (radiometric profiling service); format: biochemical; details: apparent Ki calculated from Km (ATP) and IC50; read-out: CDK inhibition Ki CDK 2A
Method in brief: as §1

CDK9T1 = target: T1, CDK9T1 (Homo sapiens, UniProt P50750); experiment: Kinase assay CDK9/T1 (radiometric or ADP Glo); format: biochemical; details: apparent Ki calculated from Km (ATP) and IC50; read-out: CDK inhibition Ki CDK9T1
T1 construct: purchased Eurofins Pharma Discovery or Reaction Biology Corporation (service)
T1 sequence (P50750 whole entry): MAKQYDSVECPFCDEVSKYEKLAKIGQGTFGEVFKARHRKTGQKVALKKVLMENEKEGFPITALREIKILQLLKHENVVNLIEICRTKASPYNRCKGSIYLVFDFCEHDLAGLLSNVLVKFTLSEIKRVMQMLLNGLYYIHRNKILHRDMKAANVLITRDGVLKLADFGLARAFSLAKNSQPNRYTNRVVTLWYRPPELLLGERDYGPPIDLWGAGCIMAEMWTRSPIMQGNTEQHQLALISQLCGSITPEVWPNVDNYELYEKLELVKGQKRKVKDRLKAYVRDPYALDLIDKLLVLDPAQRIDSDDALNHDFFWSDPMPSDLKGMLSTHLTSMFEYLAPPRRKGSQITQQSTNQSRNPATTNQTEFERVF
T1 sequence (O60563 whole entry partner): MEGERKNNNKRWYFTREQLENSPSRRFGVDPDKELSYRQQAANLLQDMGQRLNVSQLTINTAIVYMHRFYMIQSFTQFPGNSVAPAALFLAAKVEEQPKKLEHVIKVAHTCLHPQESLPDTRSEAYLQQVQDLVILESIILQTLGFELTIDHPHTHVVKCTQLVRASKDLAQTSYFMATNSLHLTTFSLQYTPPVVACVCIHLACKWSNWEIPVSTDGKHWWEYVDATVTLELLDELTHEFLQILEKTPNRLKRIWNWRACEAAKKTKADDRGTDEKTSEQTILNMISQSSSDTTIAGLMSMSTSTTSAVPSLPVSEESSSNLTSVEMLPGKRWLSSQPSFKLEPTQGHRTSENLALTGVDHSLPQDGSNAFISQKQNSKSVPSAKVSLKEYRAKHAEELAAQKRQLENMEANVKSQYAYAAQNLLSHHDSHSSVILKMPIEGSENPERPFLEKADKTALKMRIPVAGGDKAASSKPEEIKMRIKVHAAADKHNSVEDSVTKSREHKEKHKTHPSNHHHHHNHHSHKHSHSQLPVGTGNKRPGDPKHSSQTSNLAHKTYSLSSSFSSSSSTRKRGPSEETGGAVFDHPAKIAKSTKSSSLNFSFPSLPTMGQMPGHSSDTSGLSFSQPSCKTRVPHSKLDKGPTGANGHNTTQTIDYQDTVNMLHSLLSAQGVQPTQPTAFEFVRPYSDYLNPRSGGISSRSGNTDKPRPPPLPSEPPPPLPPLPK
Method in brief: as §1

MDA-MB-453 = experiment: Cell viability assay (MTT, solid tumour cell line) MDA-MB-453; format: cell-based, human; details: Homo sapiens, MDA-MB-453, 72 h; read-out: Anti-proliferative activity GI50 MDA-MB-453
Description: as §2

CDK6D3 = target: T2, CDK6D3 (Homo sapiens, UniProt Q00534); experiment: Kinase assay CDK6/D3 (radiometric or ADP Glo); format: biochemical; details: apparent Ki calculated from Km (ATP) and IC50; read-out: CDK inhibition Ki CDK6D3
T2 construct: purchased Eurofins Pharma Discovery or Reaction Biology Corporation (service)
T2 sequence (Q00534 whole entry): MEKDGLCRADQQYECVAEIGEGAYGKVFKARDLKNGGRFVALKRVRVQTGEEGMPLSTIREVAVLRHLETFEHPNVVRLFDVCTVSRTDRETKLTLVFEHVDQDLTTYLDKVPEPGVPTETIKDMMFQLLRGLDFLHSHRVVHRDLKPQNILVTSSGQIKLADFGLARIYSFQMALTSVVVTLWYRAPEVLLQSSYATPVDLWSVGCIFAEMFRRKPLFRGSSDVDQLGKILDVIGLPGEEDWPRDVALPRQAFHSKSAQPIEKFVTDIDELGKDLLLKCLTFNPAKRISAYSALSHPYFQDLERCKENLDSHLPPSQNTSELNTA
T2 sequence (P30281 whole entry partner): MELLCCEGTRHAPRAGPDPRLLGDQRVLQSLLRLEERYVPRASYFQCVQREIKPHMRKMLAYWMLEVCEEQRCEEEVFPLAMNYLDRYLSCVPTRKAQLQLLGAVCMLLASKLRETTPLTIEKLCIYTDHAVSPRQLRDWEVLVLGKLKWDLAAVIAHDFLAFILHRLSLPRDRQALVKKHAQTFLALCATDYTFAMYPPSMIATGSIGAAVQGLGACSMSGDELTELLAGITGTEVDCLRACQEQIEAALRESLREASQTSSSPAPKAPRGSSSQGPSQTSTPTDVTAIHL
Method in brief: as §1

CDK4D1 = target: T3, CDK4D1 (Homo sapiens, UniProt P11802); experiment: Kinase assay CDK4/D1 (radiometric or ADP Glo); format: biochemical; details: apparent Ki calculated from Km (ATP) and IC50; read-out: CDK inhibition Ki CDK4D1
T3 construct: purchased Eurofins Pharma Discovery or Reaction Biology Corporation (service)
T3 sequence (P11802 whole entry): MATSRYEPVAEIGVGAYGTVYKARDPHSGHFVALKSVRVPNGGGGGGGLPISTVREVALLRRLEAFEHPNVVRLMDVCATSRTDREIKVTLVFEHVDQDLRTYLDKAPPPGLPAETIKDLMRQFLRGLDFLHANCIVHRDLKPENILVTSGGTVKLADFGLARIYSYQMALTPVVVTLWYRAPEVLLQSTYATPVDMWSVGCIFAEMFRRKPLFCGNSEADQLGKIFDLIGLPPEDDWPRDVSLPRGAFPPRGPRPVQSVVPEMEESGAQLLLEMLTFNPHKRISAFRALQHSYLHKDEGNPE
T3 sequence (P24385 whole entry partner): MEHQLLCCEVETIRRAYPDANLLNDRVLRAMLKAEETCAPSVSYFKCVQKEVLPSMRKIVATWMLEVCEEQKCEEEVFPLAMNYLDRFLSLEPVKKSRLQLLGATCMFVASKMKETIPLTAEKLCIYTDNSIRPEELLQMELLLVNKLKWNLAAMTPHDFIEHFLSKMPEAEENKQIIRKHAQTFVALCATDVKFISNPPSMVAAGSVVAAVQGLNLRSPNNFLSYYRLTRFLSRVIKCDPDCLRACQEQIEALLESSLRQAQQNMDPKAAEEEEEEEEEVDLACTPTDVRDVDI
Method in brief: as §1

Chain of CDK1B (P06493 whole entry): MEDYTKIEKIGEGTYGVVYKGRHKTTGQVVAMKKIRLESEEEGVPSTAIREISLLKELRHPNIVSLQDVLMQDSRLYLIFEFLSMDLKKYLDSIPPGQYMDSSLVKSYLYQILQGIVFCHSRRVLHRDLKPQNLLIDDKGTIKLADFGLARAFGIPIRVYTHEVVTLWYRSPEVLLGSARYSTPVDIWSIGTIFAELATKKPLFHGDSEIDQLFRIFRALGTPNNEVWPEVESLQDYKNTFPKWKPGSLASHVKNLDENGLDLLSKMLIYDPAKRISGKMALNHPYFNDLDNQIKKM
Chain of CDK1B (P14635 whole entry partner): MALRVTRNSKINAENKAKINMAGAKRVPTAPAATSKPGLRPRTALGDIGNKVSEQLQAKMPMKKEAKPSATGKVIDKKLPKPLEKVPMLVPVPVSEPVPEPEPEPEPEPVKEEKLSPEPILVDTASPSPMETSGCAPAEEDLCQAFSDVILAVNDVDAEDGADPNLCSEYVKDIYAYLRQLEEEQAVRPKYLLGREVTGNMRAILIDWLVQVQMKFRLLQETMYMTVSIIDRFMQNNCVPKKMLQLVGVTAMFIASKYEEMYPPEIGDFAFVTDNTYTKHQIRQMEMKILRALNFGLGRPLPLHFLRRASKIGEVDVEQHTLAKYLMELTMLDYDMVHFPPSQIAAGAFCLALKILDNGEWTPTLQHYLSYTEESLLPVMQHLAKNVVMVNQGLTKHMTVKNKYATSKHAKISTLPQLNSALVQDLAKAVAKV

Structure (SMILES)	Ki (CDK1B)	GI50 (MV4-11)	Ki (CDK7H)	Ki (CDK 2A)	Ki (CDK9T1)	GI50 (MDA-MB-453)	Ki (CDK6D3)	Ki (CDK4D1)
CNc1nc(C)c(-c2nc(Nc3ccc(N4CCOCC4)cn3)ncc2F)s1 [Compound 38, 5-(5-fluoro-2-((5-morpholinopyridin-2-yl)amino)pyrimidin-4-yl)-N,4-dimethylthiazol-2-amine]	3320 nM	69 ± 5 nM	> 5000 nM	100 nM	> 5000 nM	5410 ± 801 nM	30 nM	5 nM
Cc1nc(N(C)C)sc1-c1ccnc(Nc2ccc(N3CCNCC3)cn2)n1 [Compound 43, N,N,4-trimethyl-5-(2-((5-(piperazin-1-yl)pyridin-2-yl)amino)pyrimidin-4-yl)thiazol-2-amine]	> 5000 nM	11 ± 21 nM	> 5000 nM	903 nM	> 5000 nM	894 ± 91 nM	56 nM	21 nM
Cc1nc(N(C)C)sc1-c1nc(Nc2ccc(N3CCNCC3)cn2)ncc1F [Compound 44, 5-(5-fluoro-2-((5-(piperazin-1-yl)pyridin-2-yl)amino)pyrimidin-4-yl)-N,N,4-trimethylthiazol-2-amine]	> 5000 nM	48 ± 4 nM	> 5000 nM	335 nM	> 5000 nM	237 ± 44 nM	40 nM	4 nM
Cc1nc(N(C)C)sc1-c1ccnc(Nc2ccc(N3CCN(C)CC3)cn2)n1 [Compound 45, N,N,4-trimethyl-5-(2-((5-(4-methylpiperazin-1-yl)pyridin-2-yl)amino)pyrimidin-4-yl)thiazol-2-amine]	> 5000 nM	92 ± 4 nM	> 5000 nM	1430 nM	> 5000 nM	2100 ± 787 nM	154 nM	30 nM
CC(=O)N1CCN(c2ccc(Nc3nccc(-c4sc(N(C)C)nc4C)n3)nc2)CC1 [Compound 48, 1-(4-(6-((4-(2-(dimethylamino)-4-methylthiazol-5-yl)pyrimidin-2-yl)amino)pyridin-3-yl)piperazin-1-yl)ethan-1-one]	> 5000 nM	537 ± 133 nM	> 5000 nM	976 nM	> 5000 nM	4720 ± 715 nM	234 nM	87 nM
CC(=O)N1CCN(c2ccc(Nc3ncc(F)c(-c4sc(N(C)C)nc4C)n3)nc2)CC1 [Compound 49, 1-(4-(6-((4-(2-(dimethylamino)-4-methylthiazol-5-yl)-5-fluoropyrimidin-2-yl)amino)pyridin-3-yl)piperazin-1-yl)ethan-1-one]	> 5000 nM	208 ± 30 nM	> 5000 nM	1040 nM	> 5000 nM	2370 ± 26 nM	366 nM	24 nM

The next molecules have a lower Ki (CDK1B) than those just listed; values first:

Ki (CDK1B)	GI50 (MV4-11)	Ki (CDK7H)	Ki (CDK 2A)	Ki (CDK9T1)	GI50 (MDA-MB-453)	Ki (CDK6D3)	Ki (CDK4D1)	Structure (SMILES)
1360 nM	12 ± 3 nM	> 5000 nM	236 nM	784 nM	248 ± 44 nM	32 nM	4 nM	CNc1nc(C)c(-c2nc(Nc3ccc(N4CCNCC4)cn3)ncc2F)s1 [Compound 28, 5-(5-fluoro-2-((5-(piperazin-1-yl)pyridin-2-yl)amino)pyrimidin-4-yl)-N,4-dimethylthiazol-2-amine]
3100 nM	154 ± 74 nM	> 5000 nM	310 nM	> 5000 nM	5840 ± 279 nM	3030 nM	578 nM	CNc1nc(C)c(-c2ccnc(Nc3ccc(N4CCN(C(C)=O)CC4)cn3)n2)s1 [Compound 33, 1-(4-(6-((4-(4-methyl-2-(methylamino)thiazol-5-yl)pyrimidin-2-yl)amino)pyridin-3-yl)piperazin-1-yl)ethan-1-one]
1820 nM	35 ± 4 nM	> 5000 nM	178 nM	4070 nM	4910 ± 432 nM	46 nM	17 nM	CNc1nc(C)c(-c2nc(Nc3ccc(N4CCN(C(C)=O)CC4)cn3)ncc2F)s1 [Compound 35, 1-(4-(6-((5-fluoro-4-(4-methyl-2-(methylamino)thiazol-5-yl)pyrimidin-2-yl)amino)pyridin-3-yl)piperazin-1-yl)ethan-1-one]
